According to patent publication US6020363A, “Isocoumarin derivatives and use thereof in drugs” (Mercian Corporation, priority 1998, dated 2000):

What was measured:
[1] = system: collagen-induced arthritis; assay: Inhibitory Effect on Collagen-Induced Arthritis (No. 2), arthritis score; type: in vivo, DBA/1J mice; conditions: oral, mean ± SE, maximum 16
Protocol: (§1) The preventive effect on the onset of collagen-induced arthritis was tested by using DBA/1J mice in groups of 5-8. Specifically, type II collagen was mixed with an equal volume of Freund's complete adjuvant and emulsified to prepare a 1 mg/ml emulsion. Mice were sensitized by administering 0.1 ml of this emulsion intracutaneously to the root of the tail. After 21 days, the mice were additionally immunized by emulsifying type II collagen in the same manner as before and administering 0.1 ml of the emulsion intraperitoneally so as to induce arthritis.
Animals having arthritis induced in the same manner as described above were used in groups of 7-8. Compound 3 was orally administered, once a day, for 21 days following the additional immunization in a dose of 1, 3 or 10 mg/kg body weight. For comparative purposes, MI43 was similarly administered to another group in a dose of 30 mg/kg body weight. According to the degree of rubor, swelling and rigidity in each of the forelegs and hind legs of the experimental animals, their inhibitory effect on collagen-induced arthritis was evaluated on the following basis by a score ranging from 0 to 4 (with a maximum value of 16).
0: No symptom is observed.
2: Two or more small joints, or a relatively large joint such as that of the wrist or ankle, show rubor or swelling.
4: The total swelling of the hand or foot reaches its peak and, moreover, is accompanied by joint rigidity.

carrageenin edema = assay: Effect on Carrageenin Edema; type: in vivo, ICR mice; conditions: for Degree of edema (%): 2 h after carrageenin, mean ± SE, control 47.4 ± 2.8
Protocol: The effect on carrageenin edema was tested by using ICR mice in groups of 6-7. Specifically, Compound 3 was orally administered thereto in a dose of 3 or 30 mg/kg body weight. As a positive control drug, indomethacin was similarly administered in a dose of 20 mg/kg body weight. After 30 minutes, 25 μl of a 1% carrageenin solution was subcutaneously injected into the sole of the right hind leg. Two hours after the administration of carrageenin, the thickness of the sole was measured with digital vernier calipers, and the degree of edema (%) based on the thickness measured before administration was calculated.

[2] = system: cyclooxygenase (or prostaglandin endoperoxide synthase); assay: Effect on cyclooxygenase activity; type: biochemical, sheep
Protocol: The inhibitory effect of Compound 3 on cyclooxygenase (or prostaglandin endoperoxide synthase) activity was tested according to the method of Evans et al. (Biochemical Pharmacology, 36: 2035-2037, 1987). Specifically, an enzyme preparation derived from the seminal vesicles of sheep was incubated at 27° C. for 1.5 minutes in the presence of 500 μM arachidonic acid and 300 μM Compound 3. After the reaction was stopped by adding trichloroacetic acid to the reaction mixture, its absorbance was measured at 532 nm.

[3] = system: collagen-induced arthritis; assay: Inhibitory Effect on Collagen-Induced Arthritis (No. 1), sole thickness; type: in vivo, DBA/1J mice; conditions: intraperitoneal, mean ± SD, *p < 0.05 vs control (8.02 ± 0.82)
Protocol: as §1
Starting from the day of the first sensitization with type II collagen, Compound 1 was orally administered, once a day, for 43 days in a dose of 10 or 30 mg/kg body weight. Similarly, each of Compounds 2 and 3 was intraperitoneally administered, once a day, for 43 days in a dose of 1 or 10 mg/kg body weight. Their inhibitory effect on collagen-induced arthritis was evaluated by measuring the sole thicknesses of the hind legs periodically with digital vernier calipers.

[4] = Levels of Orally Administered Test Compounds in Blood Plasma; type: in vivo, male ICR mice; conditions: oral 25 mg/kg
Protocol: Each of Compound 3 and MI43 was orally administered to fasted male ICR mice (weighing 18-21 g) in a dose of 25 mg/kg. Blood samples were collected from the mice 5 minutes, 30 minutes, 4 hours, 8 hours and 24 hours after administration (3 mice per point for Compound 3 and 5 mice per point for MI43). These blood samples were centrifuged to obtain blood plasma samples. Each of the blood plasma samples was subjected to the following pretreatment and then analyzed by high-performance liquid chromatography (HPLC). 1.8 ml of a saturated aqueous solution of ammonium sulfate and 1.0 ml of methanol were added to and mixed with 0.2 ml of the blood plasma sample. This mixture was shaken with 3.5 ml of ethyl acetate. After this mixture was centrifuged, the ethyl acetate layer was separated. Moreover, the aqueous layer was shaken with 3.5 ml of ethyl acetate, followed by centrifugation. The ethyl acetate layer thus obtained was combined with the previously separated ethyl acetate layer, and this mixture was evaporated to dryness under reduced pressure. The resulting residue was redissolved in 0.2 ml of a 50% aqueous solution of acetonitrile and used as a sample for HPLC.
The analytical conditions for HPLC (using the CCTD system manufactured by Toso Co., Ltd.) were as follows: A YMC A-312 column (ODS 6×150 mm; manufactured by YMC Co., Ltd.) was used as the column. As the mobile phase, a 60:40 mixture of acetonitrile and 0.1% aqueous TFA was used for Compound 3, and a 40:60 mixture of acetonitrile and 0.1% aqueous TFA was used for MI43. The rest compound was eluted at a flow velocity of 1.0 ml/min and detected by UV light at 244 nm.

COc1cc(O)c2c(=O)oc(C(C)C(=O)O)cc2c1 (stereo not drawn) [Compound 3, 2-(8-hydroxy-6-methoxy-1-oxo-1H-2-benzopyran-3-yl)propionic Acid]
Score after 37 days ([1]; 1 mg/kg/day, control 9.25 ± 1.35): 6.50 ± 1.49
Score after 37 days ([1]; 3 mg/kg/day, control 9.25 ± 1.35): 5.00 ± 1.61
Score after 37 days ([1]; 10 mg/kg/day, **p < 0.01 vs control (9.25 ± 1.35)): 3.50 ± 0.63
effect on carrageenin edema (in words) (carrageenin edema; doses of 3 and 30 mg/kg): no inhibitory effect on carrageenin edema
Degree of edema (%) (carrageenin edema; oral 3 mg/kg): 41.7 ± 3.1%
Degree of edema (%) (carrageenin edema; oral 30 mg/kg): 46.1 ± 4.2%
inhibitory effect on cyclooxygenase (in words) ([2]; 30 μM or 300 μM): no inhibitory effect on cyclooxygenase or lipoxygenase
Degree of inhibition (%), Cyclooxygenase ([2]; 300 μM Compound 3, 500 μM arachidonic acid, n = 2): -4.0%
Sole thickness (sum of left and right, mm), after 37 days ([3]; 1 mg/kg/day): 7.08 ± 0.16 mm
Sole thickness (sum of left and right, mm), after 37 days ([3]; 10 mg/kg/day): 6.78 ± 0.98 mm
concentration at 5 min ([4]; mouse, plasma, 5 min, read-out: Concentration of unchanged Compound 3 in blood plasma, mean): 123 µg/mL
concentration at 0.5 h ([4]; mouse, plasma, 30 min, read-out: Concentration of unchanged Compound 3 in blood plasma, mean): 131 µg/mL
concentration at 4 h ([4]; mouse, plasma, 4 hr, read-out: Concentration of unchanged Compound 3 in blood plasma, mean): 63 µg/mL
concentration at 8 h ([4]; mouse, plasma, 8 hr, read-out: Concentration of unchanged Compound 3 in blood plasma, mean): 38.4 µg/mL
concentration at 24 h ([4]; mouse, plasma, 24 hr, read-out: Concentration of unchanged Compound 3 in blood plasma, mean): 0.19 µg/mL
Tmax ([4]; mouse, plasma, unchanged compound, read-out: time of peak / highest plasma level after administration (converted)): 30 min
plasma concentration after 8 hours (in words) ([4]; 8 hr): remained high even after 8 hours
plasma concentration after 24 hours (in words) ([4]; 24 hr): dropped to a vary low level after 24 hours
